Data from patent publication US9157088B2, “Transferases, epimerases, polynucleotides encoding these and uses thereof” (priority 2007, dated 2015).
Each block holds one molecule with its values, some of them ahead of it.

Tests used:
[1] = system: L-Galactose dehydrogenase; details: cited from earlier work
[2] = target: T1, L-Galactose-1-Phosphate phosphatase (Arabidopsis thaliana, UniProt Q9M8S8); details: cited from earlier work
T1 construct: made in house; host or cells: E. coli
T1 sequence (Q9M8S8 1-271): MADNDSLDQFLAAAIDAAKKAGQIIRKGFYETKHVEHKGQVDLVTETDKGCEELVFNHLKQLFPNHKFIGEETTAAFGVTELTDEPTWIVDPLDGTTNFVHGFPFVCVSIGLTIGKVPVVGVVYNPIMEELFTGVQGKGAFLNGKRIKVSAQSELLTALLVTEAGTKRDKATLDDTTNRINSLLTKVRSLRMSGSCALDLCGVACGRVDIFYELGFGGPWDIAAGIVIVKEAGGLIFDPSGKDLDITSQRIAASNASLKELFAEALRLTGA

[3] = target: kiwifruit GDP-L-Galactose Guanyltransferase EST 319998 (Actinidia chinensis, UniProt A0A2R6QD99); assay: Continuous coupled assay of transferase activity with guanyl acceptors; details: sugar phosphate as guanyl acceptor, epimerase generated substrate
Procedure: (§1) Expression of genes in E. coli. The EST 319998 from young fruit of Actinidia chinensis and At4g26850 were each cloned into pET30A (Novagene, USA), their sequence checked and expressed in E. coli. The N terminal His6 tag was used to purify the protein. An empty vector control was expressed and purified in parallel. Techniques were essentially as described earlier (Laing et al., 2004).
L-Galactose dehydrogenase (Gen Bank accession AA018639 (EST 56121), 1.5 ug/assay) was cloned from an EST derived from an A. deliciosa (kiwifruit) shoot bud library with a maltose binding protein presequence and assayed as described previously (Laing et al., 2004). L-Galactose-1-Phosphate phosphatase was cloned from Arabidopsis thaliana (At3g02870, 3.1 ug/assay) and assayed as described (Laing et al., 2004). GDP-D-Mannose 3′,5′-Epimerase (198296) was cloned from dormant kiwifruit (A. deliciosa) buds three days after hydrogen cyanamide treatment and assayed as described (Wolucka et al., 2001). The former two enzymes are highly specific as to their substrates (Laing et al., 2004; Laing et al., 2004).
The assay for GDP-L-Galactose-1-Phosphate Guanyltransferase was run in 20 mM TrisCl, pH 8.0, GDP-L-Galactose, with 1 mM D-Mannose-1-Phosphate. […] In the latter case, 0.21 mg of epimerase was incubated with GDP-D-Mannose in 20 mM Tris Cl pH 8 in a total volume of 400 μL (see Wolucka et al., 2001) for 30 minutes at 20 C and then used directly in the assay at a 1 to 20 dilution. Assays were either terminated after 10 minutes by heating to 100 C for three minutes, or directly coupled to the phosphatase and L-Galactose dehydrogenase to measure product formation during the assay. Heat terminated assays were cooled on ice, centrifuged to remove precipitated protein and L-Galactose assayed using the coupling enzymes described above (see also (Laing et al., 2004)).
The applicants used two assays to characterise the enzyme, using two sources of the substrate GDP-L-Galactose. The first assay used the E. coli expressed coupling enzymes L-Galactose-1-Phosphate phosphatase and L-Galactose dehydrogenase. […] The applicants either measured the product formed by adding the coupling enzymes in the assay and measuring the time course of NADH formed, or by stopping the reaction after 10 minutes by boiling for 3 minutes and centrifuging. To this latter fixed time assay, the applicants then either adding coupling enzymes to measure L-Galactose production or using the LCMS to measure the products. The LCMS was used only to confirm the results of the coupled enzyme reaction and to measure the reverse reaction.

[4] = Transferase activity of E. coli expressed enzymes (coupled reaction and LCMS); type: biochemical; details: enzyme expressed in E. coli, His tag purified
Procedure: as §1, with “2004). In much of this work the His-protein was further purified on a 5 mL HiTrap Q FF column (GE Healthcare), and identical results were obtained with both preparations.” for “2004).”
The assay for GDP-L-Galactose-1-Phosphate Guanyltransferase was run in 20 mM TrisCl, pH 8.0, GDP-L-Galactose, with 1 mM D-Mannose-1-Phosphate. GDP-L-Galactose was either used directly from the Glycoteam product (in which case high backgrounds were observed due to contaminating L-Galactose-1-Phosphate) or GDP-L-Galactose was generated using the epimerase. In the latter case, 0.21 mg of epimerase was incubated with GDP-D-Mannose in 20 mM Tris Cl pH 8 in a total volume of 400 μL (see Wolucka et al., 2001) for 30 minutes at 20 C and then used directly in the assay at a 1 to 20 dilution. Assays were either terminated after 10 minutes by heating to 100 C for three minutes, or directly coupled to the phosphatase and L-Galactose dehydrogenase to measure product formation during the assay. Heat terminated assays were cooled on ice, centrifuged to remove precipitated protein and L-Galactose assayed using the coupling enzymes described above (see also (Laing et al., 2004)). Assays for L-Galactose were linear with added L-Galactose-1-Phosphate over the range measured. Backgrounds were run using the empty vector control, which gave the same result as a boiled enzyme control. […]
The applicants used two assays to characterise the enzyme, using two sources of the substrate GDP-L-Galactose. […] The applicants either measured the product formed by adding the coupling enzymes in the assay and measuring the time course of NADH formed, or by stopping the reaction after 10 minutes by boiling for 3 minutes and centrifuging. […]

Sequence of kiwifruit GDP-L-Galactose Guanyltransferase EST 319998 (A0A2R6QD99 entry or part of it): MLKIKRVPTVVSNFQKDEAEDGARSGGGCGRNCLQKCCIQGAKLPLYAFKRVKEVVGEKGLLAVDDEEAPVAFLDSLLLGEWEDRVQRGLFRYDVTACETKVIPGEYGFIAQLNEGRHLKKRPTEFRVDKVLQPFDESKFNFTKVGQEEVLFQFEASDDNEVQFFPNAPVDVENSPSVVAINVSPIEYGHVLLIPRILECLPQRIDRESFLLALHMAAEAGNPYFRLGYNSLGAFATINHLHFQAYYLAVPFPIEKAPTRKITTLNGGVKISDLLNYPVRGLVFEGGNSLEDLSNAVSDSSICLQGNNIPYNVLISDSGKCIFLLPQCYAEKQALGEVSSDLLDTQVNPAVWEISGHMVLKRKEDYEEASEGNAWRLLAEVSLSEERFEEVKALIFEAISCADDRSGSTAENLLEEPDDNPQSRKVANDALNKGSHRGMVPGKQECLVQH

Molecule: O=C[C@H](O)[C@@H](O)[C@@H](O)[C@H](O)CO [D-Galactose]
reaction with L-Galactose dehydrogenase [1]: not reacting

Molecule: O=C[C@@H](O)[C@@H](O)[C@H](O)[C@H](O)CO [D-Mannose]
reaction with L-Galactose dehydrogenase [1]: not reacting

% of D-mannose-1P [3]: 126%
Rate ([3]; N = 6): 0.42 nmoles/sec/ug protein
Molecule: O=P(O)(O)OC1[C@@H](O)[C@H](O)C(O)[C@H](O)[C@@H]1O (stereo partly drawn) [L-Myoinositol-1-P]
dephosphorylation by L-Galactose-1-Phosphate phosphatase [2]: significantly dephosphorylating

B1: At4g26850: GDP-L-Galactose Guanyltransferase, VTC2 from Arabidopsis thaliana (protein, listed as Arabidopsis thaliana)
chain: MLKIKRVPTVVSNYQKDDGAEDPVGCGRNCLGACCLNGARLPLYACKNLVKSGEKLVISHEAIEPPVAFLESLVLGEWEDRFQRGLFRYDVTACETKVIPGKYGFVAQLNEGRHLKKRPTEFRVDKVLQSFDGSKFNFTKVGQEELLFQFEAGEDAQVQFFPCMPIDPENSPSVVAINVSPIEYGHVLLIPRVLDCLPQRIDHKSLLLAVHMAAEAANPYFRLGYNSLGAFATINHLHFQAYYLAMPFPLEKAPTKKITTTVSGVKISELLSYPVRSLLFEGGSSMQELSDTVSDCCVCLQNNNIPFNILISDCGRQIFLMPQCYAEKQALGEVSPEVLETQVNPAVWEISGHMVLKRKEDYEGASEDNAWRLLAEASLSEERFKEVTALAFEAIGCSNQEEDLEGTIVHQQNSSGNVNQKSNRTHGGPITNGTAAECLVLQ
GDP-L-Galactose Guanyltransferase activity of the expressed enzyme [4]: showed transferase activity
GDP-L-Galactose Guanyltransferase activity of the expressed enzyme ([4]; listed as At4g26): could catalyse the conversion of GDP-L-Galactose to L-Galactose-1-P
